Test results: patent US6737383B1, “Herbicidal oxadiazolidines” (priority 1999, dated 2004)

How the values were obtained:
[1] = tested on: black nightshade; assay: Test E black nightshade; assay type: in vivo, Solanum nigra; details: Postemergence; for Plant response rating, Blk nightshade: 0 to 100 scale
Method: (§1) Compounds evaluated in this test were formulated in a non-phytotoxic solvent mixture which included a surfactant and applied to plants that were in the 1- to 4-leaf stage (postemergence application). A mixture of sandy loam soil and greenhouse potting mix in a 60:40 ratio was used for the postemergence test.
(§2) Plantings of these crops and weed species were adjusted to produce plants of appropriate size for the postemergence test. All plant species were grown using normal greenhouse practices. Crop and weed species include annual bluegrass (Poa annua), blackgrass (Alopecurus myosuroides), black nightshade (Solanum nigra), chickweed (Stellaria media), common poppy (Papaver rhoeas), deadnettle (Lamium amplexicaule), downy brome (Bromus tectorum), field violet (Viola arvensis), galium (Galium aparine), green foxtail (Setaria viridis), Italian ryegrass (Lolium multiflorum), jointed goatgrass (Aegilops cylindrica), kochia (Kochia scoparia), lambsquarters (Chenopodium album), littleseed canarygrass (Phalaris minor), rape (Brassica napus), redroot pigweed (Amaranthus retroflexus), Russian thistle (Salsola kali), scentless chamomile (Matricaria inodora), spring barley (Hordeum vulgare), sugar beet (Beta vulgaris), sunflower (Helianthus annuus), ivyleaf speedwell (Veronica hederaefolia), spring wheat (Triticum aestivum), winter wheat (Triticum aestivum), wild buckwheat (Polygonum convolvulus), wild mustard (Sinapis arvensis), wild oat (Avena fatua), windgrass (Apera spica-venti) and winter barley (Hordeum vulgare).
(§3) Treated plants and untreated controls were maintained in a greenhouse for approximately 21 to 28 days, after which all treated plants were compared to untreated controls and visually evaluated. […] A dash response (-) means no test result.

[2] = tested on: field violet; assay: Test E field violet; assay type: in vivo, Viola arvensis; details: Postemergence; for Plant response rating, Field violet: 0 to 100 scale
Summary of the method: (§4)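 Greenhouse-grown plants are treated (postemergence: 1- to 4-leaf stage, sandy loam/potting mix 60:40), then evaluated visually versus untreated controls some 21 to 28 days later.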

[3] = tested on: jointed goatgrass; assay: Test E jointed goatgrass; assay type: in vivo, Aegilops cylindrica; details: Postemergence; for Plant response rating, Jointed goatgra: 0 to 100 scale
Summary of the method: as §4

[4] = tested on: kochia; assay: Test E kochia; assay type: in vivo, Kochia scoparia; details: Postemergence; for Plant response rating, Kochia: 0 to 100 scale
Summary of the method: as §4

[5] = tested on: littleseed canarygrass; assay: Test E littleseed canarygrass; assay type: in vivo, Phalaris minor; details: Postemergence; for Plant response rating, LS canarygrass: 0 to 100 scale
Method: as §1, §2, §3

[6] = tested on: redroot pigweed; assay: Test E redroot pigweed; assay type: in vivo, Amaranthus retroflexus; details: Postemergence; for Plant response rating, Redroot pigweed: 0 to 100 scale
Method: as §1, §2, §3

[7] = tested on: spring wheat; assay: Test E spring wheat; assay type: in vivo, Triticum aestivum; details: Postemergence; for Plant response rating, Spring Wheat: 0 to 100 scale
Method: as §1, §2, §3

[8] = tested on: wild buckwheat; assay: Test E wild buckwheat; assay type: in vivo, Polygonum convolvulus; details: Postemergence; for Plant response rating, Wild buckwheat: 0 to 100 scale
Method: as §1, §2, §3

[9] = tested on: winter barley; assay: Test E winter barley; assay type: in vivo, Hordeum vulgare; details: Postemergence; for Plant response rating, Barley (winter): 0 to 100 scale
Method: as §1, §2, §3

[10] = tested on: dallisgrass; assay: Test D dallisgrass; assay type: in vivo, Paspalum dilatatum; details: Postemergence, 0 to 100 scale
[11] = tested on: guineagrass; assay: Test D guineagrass; assay type: in vivo, Panicum maximum; details: Postemergence, 0 to 100 scale
[12] = tested on: sandbur; assay: Test D sandbur; assay type: in vivo, Cenchrus echinatus; details: Postemergence, 0 to 100 scale
[13] = tested on: surinam grass; assay: Test D surinam grass; assay type: in vivo, Brachiaria decumbens; details: Rate 500 g/ha; Postemergence; 0 to 100 scale
[14] = tested on: annual bluegrass; assay: Test E annual bluegrass; assay type: in vivo, Poa annua; details: Preemergence
[15] = tested on: black nightshade; assay: Test E black nightshade; assay type: in vivo, Solanum nigra; details: Preemergence
[16] = tested on: chickweed; assay: Test E chickweed; assay type: in vivo, Stellaria media; details: Preemergence
[17] = tested on: downy brome; assay: Test E downy brome; assay type: in vivo, Bromus tectorum; details: Preemergence
[18] = tested on: galium; assay: Test E galium; assay type: in vivo, Galium aparine; details: Preemergence
[19] = tested on: jointed goatgrass; assay: Test E jointed goatgrass; assay type: in vivo, Aegilops cylindrica; details: Preemergence
[20] = tested on: kochia; assay: Test E kochia; assay type: in vivo, Kochia scoparia; details: Preemergence
[21] = tested on: lambsquarters; assay: Test E lambsquarters; assay type: in vivo, Chenopodium album; details: Preemergence
[22] = tested on: scentless chamomile; assay: Test E scentless chamomile; assay type: in vivo, Matricaria inodora; details: Preemergence
[23] = tested on: sunflower; assay: Test E sunflower; assay type: in vivo, Helianthus annuus; details: Preemergence
[24] = tested on: windgrass; assay: Test E windgrass; assay type: in vivo, Apera spica-venti; details: Preemergence
[25] = Rate 500 g/ha, 0 no effect, 100 complete control
[26] = Rate 250 g/ha, 0 to 100 scale where 0 is no effect and 100 is complete control
[27] = Rate 125 g/ha, 0 no injury, 100 complete control
[28] = Rate 64 g/ha, 0 no injury, 100 complete control
[29] = Rate 125 g/ha, 0 to 100 scale (0 no effect, 100 complete control)
[30] = Rate 500 g/ha, 0 to 100 scale where 0 is no effect and 100 is complete control

SMILES: C=CCn1c(=O)on(C(=O)N(c2ccc(F)cc2)C(C)C)c1=O [Compound 146]
- Plant response rating, Blk nightshade ([1]; Rate 62 g/ha): 50
- Plant response rating, Blk nightshade ([1]; Rate 125 g/ha): 50
- Plant response rating, Blk nightshade [1, 25]: 70
- Blk nightshade plant response rating [1, 26]: 40
- Plant response rating, Field violet ([2]; Rate 62 g/ha): 50
- Plant response rating, Field violet ([2]; Rate 125 g/ha): 0
- Plant response rating, Field violet [2, 25]: 10
- Field violet plant response rating [2, 26]: 0
- Plant response rating, Jointed goatgra ([3]; Rate 62 g/ha): 55
- Plant response rating, Jointed goatgra ([3]; Rate 125 g/ha): 15
- Plant response rating, Jointed goatgra [3, 25]: 40
- Jointed goatgra plant response rating [3, 26]: 10
- Plant response rating, Kochia ([4]; Rate 62 g/ha): 30
- Plant response rating, Kochia ([4]; Rate 125 g/ha): 10
- Plant response rating, Kochia [4, 25]: 40
- Kochia plant response rating [4, 26]: 10
- Plant response rating, LS canarygrass ([5]; Rate 62 g/ha): 30
- Plant response rating, LS canarygrass ([5]; Rate 125 g/ha): 30
- Plant response rating, LS canarygrass [5, 25]: 65
- LS canarygrass plant response rating [5, 26]: 30
- Plant response rating, Redroot pigweed ([6]; Rate 62 g/ha): 30
- Plant response rating, Redroot pigweed ([6]; Rate 125 g/ha): 20
- Plant response rating, Redroot pigweed [6, 25]: 50
- Redroot pigweed plant response rating [6, 26]: 10
- Plant response rating, Spring Wheat ([7]; Rate 62 g/ha): 10
- Plant response rating, Spring Wheat ([7]; Rate 125 g/ha): 10
- Plant response rating, Spring Wheat [7, 25]: 20
- Spring Wheat plant response rating [7, 26]: 10
- Plant response rating, Wild buckwheat ([8]; Rate 62 g/ha): 20
- Plant response rating, Wild buckwheat ([8]; Rate 125 g/ha): 0
- Plant response rating, Wild buckwheat [8, 25]: 50
- Wild buckwheat plant response rating [8, 26]: 10
- Plant response rating, Barley (winter) ([9]; Rate 62 g/ha): 5
- Plant response rating, Barley (winter) ([9]; Rate 125 g/ha): 10
- Plant response rating, Barley (winter) [9, 25]: 20
- Barley (winter) plant response rating [9, 26]: 10
- Plant response rating, Dallisgrass [10, 27]: 30
- Plant response rating, Dallisgrass ([10]; Rate 250 g/ha): 60
- Plant response rating, Dallisgrass ([10]; Rate 500 g/ha): 80
- Plant response rating, Guineagrass [11, 28]: 10
- Plant response rating, Guineagrass [11, 27]: 10
- Plant response rating, Guineagrass ([11]; Rate 250 g/ha): 35
- Plant response rating, Guineagrass ([11]; Rate 500 g/ha): 60
- Sandbur plant response rating [12, 28]: 0
- Plant response rating, Sandbur ([12]; Rate 250 g/ha): 85
- Plant response rating, Sandbur ([12]; Rate 500 g/ha): 80
- Plant response rating Surinam grass [13]: 80
- Plant response rating, Annual bluegras [14, 29]: 60
- Annual bluegras plant response rating (0 to 100 scale) ([14]; Rate 250 g/ha): 80
- Plant response rating, Annual bluegras [14, 30]: 90
- Plant response rating, Blk nightshade [15, 29]: 85
- Blk nightshade plant response rating (0 to 100 scale) ([15]; Rate 250 g/ha): 10
- Plant response rating, Blk nightshade [15, 30]: 100
- Plant response rating, Chickweed [16, 29]: 30
- Chickweed plant response rating (0 to 100 scale) ([16]; Rate 250 g/ha): 80
- Plant response rating, Chickweed [16, 30]: 70
- Plant response rating, Downy brome [17, 29]: 60
- Downy brome plant response rating (0 to 100 scale) ([17]; Rate 250 g/ha): 0
- Plant response rating, Downy brome [17, 30]: 60
- Plant response rating, Galium [18, 29]: 40
- Galium plant response rating (0 to 100 scale) ([18]; Rate 250 g/ha): 50
- Plant response rating, Galium [18, 30]: 95
- Plant response rating, Jointed goatgra [19, 29]: 45
- Jointed goatgra plant response rating (0 to 100 scale) ([19]; Rate 250 g/ha): 50
- Plant response rating, Jointed goatgra [19, 30]: 50
- Plant response rating, Kochia [20, 29]: 0
- Kochia plant response rating (0 to 100 scale) ([20]; Rate 250 g/ha): 50
- Plant response rating, Kochia [20, 30]: 75
- Plant response rating Lambsquarters [21, 29]: 100
- Lambsquarters plant response rating (0 to 100 scale) ([21]; Rate 250 g/ha): 100
- Plant response rating Lambsquarters [21, 30]: 100
- Plant response rating, Scentless chamo [22, 29]: 15
- Scentless chamo plant response rating (0 to 100 scale) ([22]; Rate 250 g/ha): 100
- Plant response rating, Scentless chamo [22, 30]: 80
- Plant response rating, Sunflower [23, 29]: 20
- Sunflower plant response rating (0 to 100 scale) ([23]; Rate 250 g/ha): 30
- Plant response rating, Sunflower [23, 30]: 30
- Plant response rating, Windgrass [24, 29]: 100
- Windgrass plant response rating (0 to 100 scale) ([24]; Rate 250 g/ha): 100
- Plant response rating, Windgrass [24, 30]: 100
